How the values were obtained:
Assay in all cases: relative viability (nuclei count vs DMSO), 5 days (fraction); higher = more cells survive
GSK-J4 + Pemetrexed = compound: CCOC(=O)CCNc1cc(N2CCc3ccccc3CC2)nc(-c2ccccn2)n1 [GSK-J4] + Nc1nc2[nH]cc(CCc3ccc(C(=O)N[C@@H](CCC(=O)O)C(=O)O)cc3)c2c(=O)[nH]1 [Pemetrexed] (partner 0.2 µM)
Outline: (§1)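 The day after seeding in 1536-well plates, lung cancer cell lines were treated by pin tool with a single drug, or with a fixed anchor-drug dose together with five library-drug doses (not always all listed) in √10 steps. After 5 days, a combined fix-and-stain solution (final 0.05% Triton X-100, 1% formaldehyde, 1 ug/ml Hoechst) was added. Nuclei counted on 4× images gave relative viability as treated counts over vehicle counts, reported as the median of duplicate plates.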

AZ3146 + Trametinib = compound: CN1CCC(CC1)OC2=CC(=C(C=C2)NC3=NC=C4C(=N3)N(C(=O)N4C)C5CCCC5)OC [AZ3146] + CC(=O)Nc1cccc(-n2c(=O)n(C3CC3)c(=O)c3c(Nc4ccc(I)cc4F)n(C)c(=O)c(C)c32)c1 [Trametinib] (partner 0.02 µM)
Outline: as §1

AZ3146 + Foretinib = compound: CN1CCC(CC1)OC2=CC(=C(C=C2)NC3=NC=C4C(=N3)N(C(=O)N4C)C5CCCC5)OC [AZ3146] + COc1cc2c(Oc3ccc(NC(=O)C4(C(=O)Nc5ccc(F)cc5)CC4)cc3F)ccnc2cc1OCCCN1CCOCC1 [Foretinib] (partner 0.25 µM)
Outline: as §1

AZ3146 + Pemetrexed = compound: CN1CCC(CC1)OC2=CC(=C(C=C2)NC3=NC=C4C(=N3)N(C(=O)N4C)C5CCCC5)OC [AZ3146] + Nc1nc2[nH]cc(CCc3ccc(C(=O)N[C@@H](CCC(=O)O)C(=O)O)cc3)c2c(=O)[nH]1 [Pemetrexed] (partner 0.2 µM)
Outline: as §1

Cell Line	relative viability (GSK-J4 + Pemetrexed; first compound 0.5 µM)	relative viability (GSK-J4 + Pemetrexed; first compound 1.581 µM)	relative viability (GSK-J4 + Pemetrexed; first compound 5 µM)	relative viability (GSK-J4 + Pemetrexed; first compound 15.81 µM)	relative viability (GSK-J4 + Pemetrexed; first compound 50 µM)	relative viability (AZ3146 + Trametinib; first compound 0.08 µM)	relative viability (AZ3146 + Trametinib; first compound 0.253 µM)	relative viability (AZ3146 + Trametinib; first compound 0.8 µM)	relative viability (AZ3146 + Trametinib; first compound 2.53 µM)	relative viability (AZ3146 + Trametinib; first compound 8 µM)	relative viability (AZ3146 + Foretinib; first compound 0.08 µM)	relative viability (AZ3146 + Foretinib; first compound 0.253 µM)	relative viability (AZ3146 + Foretinib; first compound 0.8 µM)	relative viability (AZ3146 + Foretinib; first compound 2.53 µM)	relative viability (AZ3146 + Foretinib; first compound 8 µM)	relative viability (AZ3146 + Pemetrexed; first compound 0.08 µM)	relative viability (AZ3146 + Pemetrexed; first compound 0.253 µM)	relative viability (AZ3146 + Pemetrexed; first compound 0.8 µM)	relative viability (AZ3146 + Pemetrexed; first compound 2.53 µM)	relative viability (AZ3146 + Pemetrexed; first compound 8 µM)
NCI-H2023	0.177	0.245	0.238	0.218	0.173	0.55	0.473	0.616	0.538	0.442	0.783	0.788	0.774	0.949	0.227	0.207	0.238	0.226	0.216	0.129
NCI-H460	0.0749	–	0.0554	0.0643	0.0656	0.132	0.134	0.0913	0.0867	0.107	1.01	1.06	0.92	0.874	0.312	0.0552	0.0628	0.0797	0.06	0.0682
PC-3 [JPC-3]	1.14	0.848	1.03	0.938	0.944	0.709	–	0.596	0.728	0.626	0.927	1.02	1.03	1.14	0.966	0.999	–	1.19	1.02	0.942
HCC-15	0.225	0.225	0.217	0.209	0.245	0.421	0.346	0.357	0.414	0.348	1.1	0.981	1.06	1.08	0.791	0.222	0.22	0.221	0.224	0.207
NCI-H2228	0.335	0.328	0.342	0.36	0.364	0.415	0.539	0.33	0.44	0.455	0.736	0.743	0.736	0.88	0.656	0.297	0.325	0.333	0.298	0.37
NCI-H1650	0.439	0.303	0.392	0.36	0.331	0.594	0.546	0.602	0.492	0.414	1.29	1.49	0.879	1	0.604	0.323	0.324	0.366	0.376	0.386
NCI-H2342	0.737	0.79	0.762	0.84	0.824	0.715	0.741	0.989	0.89	0.89	0.928	1.03	1.16	1.01	1.07	0.69	0.821	0.807	0.756	0.752
NCI-H1975	0.249	0.285	0.212	0.331	0.276	0.315	0.351	0.29	0.348	0.306	0.915	0.886	1.04	0.977	0.362	0.312	0.311	0.294	0.295	0.244
COR-L23	0.185	0.192	–	0.212	0.207	0.587	0.646	0.56	0.718	0.6	0.979	1.08	0.877	0.987	0.787	0.195	0.196	0.215	0.208	0.195
LK-2	0.281	0.239	0.329	0.226	0.172	0.591	0.684	0.956	0.914	0.747	0.934	1.21	1.7	1.46	1.3	–	–	0.168	0.318	0.307
201T	0.353	0.301	0.312	0.33	0.364	0.718	0.728	0.73	0.677	0.685	0.945	1.02	1.08	1.13	1.06	0.275	0.328	0.32	0.331	0.303
HCC-827	0.248	0.26	0.258	0.229	0.285	0.63	0.498	0.481	0.554	0.477	1.08	1	1.03	1.03	1.09	0.291	0.244	0.252	0.269	0.248
NCI-H650	0.82	0.843	–	0.833	0.842	0.899	0.959	0.959	0.994	1.09	0.812	0.996	0.961	1.03	1.18	0.871	0.747	0.78	0.949	0.948
HARA	0.219	0.214	–	0.263	0.243	0.708	0.491	0.634	0.858	0.623	0.823	0.858	0.895	0.895	0.197	0.22	0.257	0.245	0.217	0.231
NCI-H661	0.908	0.827	0.883	0.883	0.788	0.588	0.519	0.572	0.555	0.47	0.98	1.03	0.97	0.982	0.764	0.939	0.894	0.956	0.92	0.818
NCI-H2087	0.622	0.667	0.635	0.621	0.742	0.201	0.196	0.214	0.214	0.182	1.06	1.11	1.12	1.05	0.531	0.648	0.683	0.684	0.67	0.661

Cell Line	relative viability (GSK-J4 + Pemetrexed; first compound 0.5 µM)	relative viability (GSK-J4 + Pemetrexed; first compound 1.581 µM)	relative viability (GSK-J4 + Pemetrexed; first compound 5 µM)	relative viability (GSK-J4 + Pemetrexed; first compound 15.81 µM)	relative viability (GSK-J4 + Pemetrexed; first compound 50 µM)	relative viability (AZ3146 + Trametinib; first compound 0.08 µM)	relative viability (AZ3146 + Trametinib; first compound 0.253 µM)	relative viability (AZ3146 + Trametinib; first compound 0.8 µM)	relative viability (AZ3146 + Trametinib; first compound 2.53 µM)	relative viability (AZ3146 + Trametinib; first compound 8 µM)	relative viability (AZ3146 + Foretinib; first compound 0.08 µM)	relative viability (AZ3146 + Foretinib; first compound 0.253 µM)	relative viability (AZ3146 + Foretinib; first compound 0.8 µM)	relative viability (AZ3146 + Foretinib; first compound 2.53 µM)	relative viability (AZ3146 + Foretinib; first compound 8 µM)	relative viability (AZ3146 + Pemetrexed; first compound 0.08 µM)	relative viability (AZ3146 + Pemetrexed; first compound 0.253 µM)	relative viability (AZ3146 + Pemetrexed; first compound 0.8 µM)	relative viability (AZ3146 + Pemetrexed; first compound 2.53 µM)	relative viability (AZ3146 + Pemetrexed; first compound 8 µM)
NCI-H2405	1.01	1	–	1	1.02	0.731	0.537	0.666	0.663	0.676	1.02	1.03	1.13	1.1	1.09	1.12	1.06	1.1	1.11	1.04
NCI-H2170	0.237	0.292	0.243	0.252	0.273	0.888	1.04	0.861	0.928	0.859	1.09	0.974	0.983	1.04	1.03	0.269	0.248	0.26	0.268	0.281
NCI-H1793	1.01	0.6	0.684	0.235	0.167	0.374	0.419	0.393	0.515	0.418	0.672	0.699	0.755	0.686	0.316	1.02	0.792	0.565	1.16	0.51
NCI-H647	0.175	0.177	0.168	0.184	0.205	0.365	0.44	0.366	0.476	0.317	1.01	1.21	0.857	1.16	1.21	0.22	0.178	0.188	0.204	0.115
NCI-H596	0.519	0.485	0.473	0.465	0.549	0.806	0.643	0.766	0.89	0.919	0.793	0.714	0.999	0.691	0.881	0.478	0.449	0.574	0.486	0.556
EMC-BAC-2	0.414	0.362	–	0.441	0.477	–	–	0.89	0.921	0.844	1.06	1.04	1.18	1.1	1.03	0.379	0.442	0.433	0.466	0.411
SK-MES-1	0.836	0.878	0.882	0.808	0.508	0.549	0.579	0.585	0.555	0.544	0.979	0.832	0.974	1	0.957	1.02	0.976	0.965	0.997	0.792
H3255	0.649	0.551	0.491	0.503	0.502	0.649	0.57	0.555	0.614	0.544	0.773	0.764	0.927	1.04	0.922	0.597	0.536	0.542	0.6	0.574
NCI-H1651	0.587	0.597	0.595	0.518	0.56	0.736	0.779	0.833	0.789	0.797	0.729	0.726	0.809	0.849	0.836	0.58	0.579	0.463	0.569	0.595
NCI-H1395	0.894	0.73	0.707	0.764	0.707	0.999	1.08	–	1.07	1.09	0.989	0.962	0.949	1.07	1.02	0.783	0.746	–	0.91	0.661
NCI-H23	0.679	0.525	0.653	0.568	0.598	0.455	0.354	0.391	0.422	0.402	1.02	1.08	1.19	1.01	0.612	0.789	0.645	0.857	0.787	0.45
NCI-H1355	0.988	0.975	0.889	0.858	0.992	0.441	0.429	0.435	0.435	0.439	0.974	0.968	0.936	1.04	1.05	1.02	1.02	1.03	1.12	1.13
NCI-H2085	0.899	0.789	0.699	0.883	0.961	0.495	0.57	0.506	1.03	0.403	0.898	1	0.977	1	0.868	0.923	0.824	0.869	0.887	0.705
SW 900	0.478	0.478	0.475	0.442	0.526	0.696	–	0.557	0.706	0.819	0.899	0.761	0.811	0.893	0.759	0.459	–	0.445	0.492	0.429
NCI-H322M	0.638	0.588	0.672	0.394	0.682	0.555	0.45	0.435	0.537	0.527	0.893	0.943	0.837	0.738	0.642	0.59	0.585	0.609	0.574	0.642
NCI-H1915	0.41	0.518	–	0.473	0.446	0.312	0.303	0.294	0.306	0.319	0.92	1.12	1.1	1.22	1.16	0.502	0.517	0.602	0.511	0.49

Source: the supplement of paper PMC10307832
